Data from patent US20040002510A1, “Crystalline micronisate, process for the manufacture thereof and use thereof for the preparation of a medicament” (Boehringer Ingelheim Pharma GmbH & Co. KG, priority 2002, published 2004).

How the values were obtained:
[1] = Determining particle size by laser diffraction (Fraunhofer diffraction); type: physicochemical; details: air dispersal
Text: The micronisate of tiotropium bromide obtainable by the above method has a characteristic particle size X50 of between 1.0 μm and 3.5 μm, preferably between 1.1 μm and 3.3 μm, most preferably between 1.2 μm and 3.0 μm and Q(5.8) of more than 60%, preferably more than 70%, most preferably more than 80%. The characteristic value X50 denotes the median value of the particle size below which 50% of the particles fall, with regard to the distribution by volume of the individual particles. The characteristic value Q(5.8) corresponds to the quantity of particles below 5.8 μm , based on the volume distribution of the particles. The particle sizes were determined within the scope of the present invention by laser diffraction (Fraunhofer diffraction). More detailed information on this subject can be found in the experimental descriptions of the invention.
D.2) Determining Particle Size by Laser Diffraction (Fraunhofer Diffraction)
To determine the particle size the powder is fed into a laser diffraction spectrometer by means of a dispersing unit.

[2] = Determining the heat of solution (enthalpy of solution) by solution calorimeter; type: physicochemical; details: chemically pure water, 25° C., mass corrected by water content
Description: D.4) Determining the Heat of Solution (Enthalpy of Solution) Ec:
The solution enthalpy is determined using a solution calorimeter 2225 Precision Solution Calorimeter made by Messrs. Thermometric. The heat of solution is calculated by means of the change in temperature occurring (as a result of the dissolving process) and the system-related change in temperature calculated from the base line. Before and after the ampoule is broken, electrical calibration is carried out with an integrated heating resistor of a precisely known power. A known heat output is delivered to the system over a set period and the jump in temperature is determined.
The electrical calibration takes place during the measurement, once before and once after the breakage of the ampoule. The calibration after the breakage of the ampoule is used for the evaluation.
As the mass of the tiotropium bromide micronisate weighed out has to be corrected by the water content of the material, the unsealed ampoules together with about 1 g of the test substance are left to stand open for at least 4 hours. After this equilibration time the ampoules are sealed with the silicon stoppers and the water content of the bulk sample is determined by Karl-Fischer titration. […]
The corrected mass mc determined by this calculation is used as the input value (=weight) to calculate the solution enthalpy measured.

SMILES: C[N+]1(C)C2C[C@H](OC(=O)C(O)(c3cccs3)c3cccs3)C[C@H]1[C@H]1OC21 (stereo partly drawn) [tiotropium bromide micronisate, (1α,2β,4β,5α,7β)-7-[(hydroxydi-2-thienylacetyl)oxy]-9,9-dimethyl-3-oxa-9-azoniatricyclo[3.3.1.0^2,4]nonane-bromide]
- Q(5.8) (quantity of particles below 5.8 μm, based on the volume distribution) [1]: more than 60%
- specific enthalpy of solution (heat of solution) [2]: more than 65 Ws/g
